Patent US20050048108A1, “Sulphur-containing amphiphilic agents for the transfer of biologically active molecules into cells” (G.O.T. Therapeutics GMBH, priority 2000, published 2005)

System: HeLa (human cervical carcinoma), F98 (rat glioblastoma), IMR90 (human embryonic lung) cell lines
Experiment: Transfection of adherent cell lines with pUT 651 plasmid (lacZ / β-galactosidase reporter)
Format: cell-based
Conditions: all investigated cell lines, versus Lipofectin, LipofectAMINE, DOTAP and DAC-30
Protocol: The gene transfer properties of the lipids according to the invention (lipid 9 (Sulfectin A) and lipid 10 (Sulfectin B)) were tested on various cell lines and were compared with the reagents known heretofore (FIGS. 3, 4 and 5). A plasmid coded for β-galactosidase was used as the reporter system. In the trials, the lipids were also mixed with, among other things, the neutral auxiliary lipid 1,2-dioleoyl-sn-glycero-3-phosphoethanolamine (DOPE). […] Among others a β-galactosidase expression up to 10 times higher was found. This is the more surprising in that in most cases (IMR90 and F98 cells) no admixture of an a helper lipid was necessary. With all the commercial lipids, on the other hand, a portion of DOPE was indispensable for an efficient gene transfer. The high gene transfer efficiency of the pure lipid is also advantageous for the production of the gene transfer reagent, since the formulation step of the cationic lipid and auxiliary lipid is omitted. […]
After a transfection time of 24 h, the medium is changed and the cells are incubated for a further 48 h. […] The lysate is treated with chlorophenol red β-galactopyranoside (Roche Diagnostics, 1 mg/ml in HBSS) as a substrate for β-galactosidase, and the optical density at different intervals is determined with a microplate reader (Dynex) (measurement wavelength 540 nm, reference wavelength 630 nm).

Row | Structure (SMILES) | gene transfer (transfection) efficiency compared with the known lipids
1 | CCCCCCCC/C=C\CCCCCCCC(=O)OCC(CC[S+]([O-])CCCN)OC(=O)CCCCCCC/C=C\CCCCCCCC.O=C(O)C(F)(F)F (centres unmarked) [lipid 10, 3-[(3,4-dioleoyloxybutyl)-sulfinyl]propyl-1-ammonium trifluoroacetate] | markedly higher efficiency
2 | CCCCCCCC/C=C\CCCCCCCC(=O)OCC(CCS(=O)(=O)CCCN)OC(=O)CCCCCCC/C=C\CCCCCCCC.O=C(O)C(F)(F)F (centres unmarked) [lipid 9, 3-[(3,4-dioleoyloxybutyl)-sulfonyl]propyl-1-ammonium trifluoroacetate] | markedly higher efficiency
